According to US7138361B2, “Herbicidal heterocycles” (E. I. du Pont de Nemours and Company, priority 2000, dated 2006):

Assays:
Type in all cases: in vivo
[1] = tested on: morning glory (Ipomoea spp.); assay: Test A postemergence, sprayed to runoff; design: scale not given here; settings: Morningglory, approx. eleven days
Procedure: (§1) Seeds of barnyardgrass (Echinochloa crus-galli), crabgrass (Digitaria spp.), giant foxtail (Setaria viridis), morning glory (Ipomoea spp.), redroot pigweed (Amaranthus retroflexus) and velvetleaf (Abutilon theophrasti) were planted into a sandy loam soil and treated preemergence by soil drench with test chemicals formulated in a non-phytotoxic solvent mixture which included a surfactant. At the same time, these crop and weed species were also treated postemergence sprayed to runoff with test chemicals formulated in the same manner. Plants ranged in height from two to eighteen cm and were in the one- to two-leaf stage for the postemergence treatment. Treated plants and untreated controls were maintained in a greenhouse for approximately eleven days, after which time all treated plants were compared to untreated controls and visually evaluated for injury. Plant response ratings, summarized in Table A, are based on a 0 to 10 scale where 0 is no effect and 10 is complete control. A dash (-) response means no test results.

[2] = tested on: velvetleaf (Abutilon theophrasti); assay: Test A postemergence, sprayed to runoff; design: scale not given here; settings: approx. eleven days
Procedure: as §1

[3] = tested on: barnyardgrass (Echinochloa crus-galli); assay: Test A postemergence, sprayed to runoff; settings: approx. eleven days
Procedure: as §1

[4] = tested on: crabgrass (Digitaria spp.); assay: Test A postemergence, sprayed to runoff; settings: approx. eleven days
Procedure: as §1

[5] = tested on: giant foxtail (Setaria viridis); assay: Test A postemergence, sprayed to runoff; settings: approx. eleven days
Procedure: as §1

[6] = tested on: redroot pigweed (Amaranthus retroflexus); assay: Test A postemergence, sprayed to runoff; settings: approx. eleven days
Procedure: as §1

[7] = tested on: barnyardgrass (Echinochloa crus-galli); assay: Test A preemergence, soil drench; settings: approx. eleven days
Procedure: as §1

[8] = tested on: crabgrass (Digitaria spp.); assay: Test A preemergence, soil drench; settings: approx. eleven days
Procedure: as §1

[9] = tested on: giant foxtail (Setaria viridis); assay: Test A preemergence, soil drench; settings: approx. eleven days
Procedure: as §1

[10] = tested on: morning glory (Ipomoea spp.); assay: Test A preemergence, soil drench; settings: Morningglory, approx. eleven days
Procedure: as §1

[11] = tested on: redroot pigweed (Amaranthus retroflexus); assay: Test A preemergence, soil drench; settings: approx. eleven days
Procedure: as §1

[12] = tested on: velvetleaf (Abutilon theophrasti); assay: Test A preemergence, soil drench; settings: approx. eleven days
Procedure: as §1

[13] = tested on: barnyardgrass (Echinochloa crus-galli); assay: Test B flooded paddy test; settings: Rate 1000 g/ha, scale of 0 to 100 where 0 is no effect and 100 is complete control, visually evaluated after 13 to 15 days
How it was run: (§2)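 Greenhouse-held for 13 to 15 days after treatment at the 2-leaf stage, paddy-grown plants were scored visually against controls on a 0-to-100 control scale; a dash marks no test result.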

[14] = tested on: duck salad (Heteranthera limosa); assay: Test B flooded paddy test; settings: Rate 1000 g/ha, scale of 0 to 100 where 0 is no effect and 100 is complete control, visually evaluated after 13 to 15 days
How it was run: as §2

rice (Oryza saliva) = assay: Test B flooded paddy test; settings: Rate 1000 g/ha, scale of 0 to 100 where 0 is no effect and 100 is complete control, visually evaluated after 13 to 15 days
How it was run: as §2

[15] = tested on: smallflower flatsedge (Cyperus difformis); assay: Test B flooded paddy test; settings: Rate 1000 g/ha, scale of 0 to 100 where 0 is no effect and 100 is complete control, visually evaluated after 13 to 15 days
How it was run: as §2

[16] = tested on: duck salad (Heteranthera limosa); assay: Test C flooded paddy test; settings: for Ducksalad plant response rating: scale 0 to 100, 0 no effect, 100 complete control
How it was run: (§3)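 Greenhouse-maintained for 12 to 14 days after treatment, the paddy plants (2-leaf stage at application) were scored visually against controls. A score of 0 denotes no effect and a score of 100 denotes complete control.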

[17] = tested on: smallflower flatsedge (Cyperus difformis); assay: Test C flooded paddy test; settings: for Flatsedge plant response rating: Flooded Paddy, scale 0 to 100, 0 no effect, 100 complete control; for Plant response rating, Flatsedge: flooded paddy test, scale 0 to 100 (0 no effect, 100 complete control)
How it was run: as §3

Sunflower = assay: Test C preemergence; settings: Rate 31 g/ha, scale 0 to 100
[18] = flooded paddy test, Rate 62 g/ha, scale 0 to 100 (0 no effect, 100 complete control)
[19] = flooded paddy test, Rate 125 g/ha, scale 0 to 100 (0 no effect, 100 complete control)

CC(C)c1ccn(C2OCN(c3cccc(C(F)(F)F)c3)C2=O)n1 (stereo not drawn) [Compound 27]
100: Plant response rating (visual injury vs untreated controls) ([7]; Rate 500 g/ha) | Plant response rating (visual injury vs untreated controls) ([7]; Rate 2000 g/ha) | Plant response rating (visual injury vs untreated controls) ([8]; Rate 500 g/ha) | Plant response rating (visual injury vs untreated controls) ([9]; Rate 500 g/ha) | Plant response rating (visual injury vs untreated controls) ([9]; Rate 2000 g/ha) | Plant response rating (visual injury vs untreated controls) ([11]; Rate 500 g/ha) | Plant response rating (visual injury vs untreated controls) ([11]; Rate 2000 g/ha) | Plant response rating, Ducksalad [14] | Plant response rating, Flatsedge [15] | Flatsedge plant response rating ([17]; Rate 250 g/ha) | Flatsedge plant response rating ([17]; Rate 500 g/ha)
70: Plant response rating (visual injury vs untreated controls) ([3]; Rate 500 g/ha)
50: Plant response rating (visual injury vs untreated controls) ([5]; Rate 500 g/ha) | Plant response rating, Rice (rice (Oryza saliva))
20: Plant response rating (visual injury vs untreated controls) ([1]; Rate 2000 g/ha) | Plant response rating (visual injury vs untreated controls) ([2]; Rate 2000 g/ha) | Plant response rating (visual injury vs untreated controls) ([4]; Rate 500 g/ha) | Plant response rating (visual injury vs untreated controls) ([6]; Rate 500 g/ha) | Plant response rating (visual injury vs untreated controls) ([10]; Rate 2000 g/ha) | Plant response rating (visual injury vs untreated controls) ([12]; Rate 500 g/ha)
0: Plant response rating (visual injury vs untreated controls) ([1]; Rate 500 g/ha) | Plant response rating (visual injury vs untreated controls) ([2]; Rate 500 g/ha) | Plant response rating (visual injury vs untreated controls) ([10]; Rate 500 g/ha) | Ducksalad plant response rating ([16]; Flooded Paddy, Rate 250 g/ha) | Plant response rating, Ducksalad [16, 18] | Plant response rating, Ducksalad [16, 19] | Plant response rating, Sunflower (Sunflower)
60: Plant response rating (visual injury vs untreated controls) ([4]; Rate 2000 g/ha)
90: Plant response rating (visual injury vs untreated controls) ([5]; Rate 2000 g/ha) | Plant response rating (visual injury vs untreated controls) ([8]; Rate 2000 g/ha) | Plant response rating, Barnyardgrass [13] | Ducksalad plant response rating ([16]; Flooded Paddy, Rate 500 g/ha) | Plant response rating, Flatsedge ([17]; Rate 62 g/ha) | Plant response rating, Flatsedge ([17]; Rate 125 g/ha)
10: Plant response rating (visual injury vs untreated controls) ([12]; Rate 2000 g/ha)
80: Plant response rating (visual injury vs untreated controls) ([3]; Rate 2000 g/ha) | Plant response rating (visual injury vs untreated controls) ([6]; Rate 2000 g/ha)

CC(C)(C)c1ccn(C2CCN(c3cccc(C(F)(F)F)c3)C2=O)n1 (stereo not drawn) [Example 3, 3-[3-(1,1-dimethylethyl)-1H-pyrazol-1-yl]-1-[3-(trifluoromethyl)phenyl]-2-pyrrolidinone]
80: Ducksalad plant response rating ([16]; Flooded Paddy, Rate 250 g/ha) | Plant response rating, Ducksalad [16, 19]
20: Plant response rating (visual injury vs untreated controls) ([3]; Rate 250 g/ha) | Plant response rating, Ducksalad [16, 18]
100: Plant response rating (visual injury vs untreated controls) ([7]; Rate 250 g/ha) | Plant response rating (visual injury vs untreated controls) ([7]; Rate 1000 g/ha) | Plant response rating (visual injury vs untreated controls) ([8]; Rate 250 g/ha) | Plant response rating (visual injury vs untreated controls) ([8]; Rate 1000 g/ha) | Plant response rating (visual injury vs untreated controls) ([9]; Rate 250 g/ha) | Plant response rating (visual injury vs untreated controls) ([9]; Rate 1000 g/ha) | Plant response rating (visual injury vs untreated controls) ([11]; Rate 250 g/ha) | Plant response rating (visual injury vs untreated controls) ([11]; Rate 1000 g/ha) | Plant response rating, Barnyardgrass [13] | Plant response rating, Ducksalad [14] | Plant response rating, Flatsedge [15] | Plant response rating, Ducksalad ([16]; Flooded Paddy, Rate 1000 g/ha, scale 0 to 100) | Flatsedge plant response rating ([17]; Rate 250 g/ha) | Flatsedge plant response rating ([17]; Rate 500 g/ha) | Flatsedge plant response rating ([17]; rate of this column group stands in head line r653, not shown (group before Rate 500 g/ha)) | Plant response rating, Flatsedge ([17]; Rate 125 g/ha)
10: Plant response rating (visual injury vs untreated controls) ([1]; Rate 250 g/ha) | Plant response rating (visual injury vs untreated controls) ([1]; Rate 1000 g/ha) | Plant response rating (visual injury vs untreated controls) ([3]; Rate 1000 g/ha) | Plant response rating (visual injury vs untreated controls) ([5]; Rate 1000 g/ha) | Plant response rating (visual injury vs untreated controls) ([6]; Rate 1000 g/ha)
90: Plant response rating, Rice (rice (Oryza saliva)) | Plant response rating, Ducksalad ([16]; Flooded Paddy, Rate 500 g/ha, scale 0 to 100) | Plant response rating, Flatsedge ([17]; Rate 62 g/ha)
60: Plant response rating (visual injury vs untreated controls) ([6]; Rate 250 g/ha)
0: Plant response rating (visual injury vs untreated controls) ([2]; Rate 250 g/ha) | Plant response rating (visual injury vs untreated controls) ([2]; Rate 1000 g/ha) | Plant response rating (visual injury vs untreated controls) ([4]; Rate 250 g/ha) | Plant response rating (visual injury vs untreated controls) ([4]; Rate 1000 g/ha) | Plant response rating (visual injury vs untreated controls) ([5]; Rate 250 g/ha) | Plant response rating (visual injury vs untreated controls) ([10]; Rate 250 g/ha) | Plant response rating (visual injury vs untreated controls) ([10]; Rate 1000 g/ha) | Plant response rating (visual injury vs untreated controls) ([12]; Rate 250 g/ha) | Plant response rating (visual injury vs untreated controls) ([12]; Rate 1000 g/ha)
